Test results published in US4892736A, “Intra-pocket drug delivery devices for treatment of periodontal diseases” (The Forsyth Dental Infirmary for Children, priority 1988, dated 1990).
Counter-ions that a name gives are not always drawn.

Tested on: cultivable periodontal microorganisms
Experiment: Concentration of tetracycline necessary to suppress growth of all cultivable periodontal microorganisms (agar plates)
Assay type: cell-based
Details: anaerobic, 35° C., 5 to 7 days
Experimental: Samples containing periodontal organisms taken from deep periodontal pockets of 5 patients were transferred to 10 ml of pre-reduced Ringer's solution, dispersed by 10 seconds of sonic oscillation at an amplitude of 10 microns, and dilutions of 1:20, 1:100, and 1:1000 were prepared. One-tenth milliliter of each dilution was streaked on trypticase soy agar containing 5% sheep blood and 0.3 μg/ml menadione in petri dishes. Identical plates were prepared containing 1, 8, 32, and 64 micrograms/milliliter of tetracycline hydrochloride. Inoculated plates were incubated at 35° C. in an anaerobic atmosphere at 80% nitrogen, 10% hydrogen, and 10% carbon dioxide for 5 to 7 days. Plates from dilutions providing separated colony growth were selected for counting to determine the total colony forming units on primary medium and each associated tetracycline-containing medium. Percentages of organisms grown at each concentration were computed. Values of 21.2%, 3.6%, 0.08%, and 0% were found on plates containing 1, 8, 32, and 64 micrograms/milliliter tetracycline respectively. These observations indicate that no cultivable periodontal organisms grow at tetracycline concentrations of 64 micrograms/milliliter, thereby establishing the primary design parameter for a local drug delivery system for periodontal therapy which would suppress growth of all cultivable periodontal microorganisms with continuous exposure of the organisms to tetracycline.

Structure (SMILES): CN(C)C1C(=O)C(C(N)=O)=C(O)C2(O)C(=O)C3=C(O)c4c(O)cccc4C(C)(O)C3CC12 (centres unmarked) [tetracycline, tetracycline hydrochloride]
- activity at 1 µg/mL (168 h, 1 microgram/milliliter tetracycline, % of colony forming units on primary medium, read-out: Percentage of organisms grown): 21.2%
- activity at 8 µg/mL (168 h, 8 micrograms/milliliter tetracycline, % of colony forming units on primary medium, read-out: Percentage of organisms grown): 3.6%
- activity at 32 µg/mL (168 h, 32 micrograms/milliliter tetracycline, % of colony forming units on primary medium, read-out: Percentage of organisms grown): 0.08%
- activity at 64 µg/mL (168 h, 64 micrograms/milliliter tetracycline, % of colony forming units on primary medium, read-out: Percentage of organisms grown): 0%
- MIC (tested 1, 8, 32, 64 micrograms/milliliter, read-out: Concentration at which no cultivable periodontal organisms grow): 64 µg/mL
